pIC50: −log10 of the molar value.
System: 494315-158-R-J1-PDC complex spheroid growth, percent test/control
Experiment: Anticancer human tumor 494315-158-R-J1-PDC patient-derived soft tissue sarcoma cell line growth inhibition [Asc]
Details: for pIC50: curve of first compound; for viability, T/C: stronger effect = lower value; active means viability on the fitted dose curve at most 10% of control; inactive means the rest
How it was run: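 Spheroid model: tumor line + HUVEC + hMSC. Single agents and combinations; top conc. at/near clinical Cmax (10 microM if undetermined), half-log dilutions. DMSO stocks at 800-fold test concentration.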

[1] = second compound 0.01 µM, first compound 0.0316 µM
[2] = second compound 0.01 µM, first compound 0.1 µM
[3] = second compound 0.01 µM, first compound 0.316 µM
[4] = second compound 0.01 µM, first compound 1 µM
[5] = second compound 0.01 µM, first compound 3.16 µM
[6] = second compound 0.01 µM, first compound 10 µM
[7] = second compound 0.0316 µM, first compound 0.0316 µM
[8] = second compound 0.0316 µM, first compound 0.1 µM
[9] = second compound 0.0316 µM, first compound 0.316 µM
[10] = second compound 0.0316 µM, first compound 1 µM
[11] = second compound 0.0316 µM, first compound 3.16 µM
[12] = second compound 0.0316 µM, first compound 10 µM
[13] = second compound 0.1 µM, first compound 0.0316 µM
[14] = second compound 0.1 µM, first compound 0.1 µM
[15] = second compound 0.1 µM, first compound 0.316 µM
[16] = second compound 0.1 µM, first compound 1 µM
[17] = second compound 0.1 µM, first compound 3.16 µM
[18] = second compound 0.1 µM, first compound 10 µM
[19] = second compound 0.316 µM, first compound 0.0316 µM
[20] = second compound 0.316 µM, first compound 0.1 µM
[21] = second compound 0.316 µM, first compound 0.316 µM
[22] = second compound 0.316 µM, first compound 1 µM
[23] = second compound 0.316 µM, first compound 3.16 µM
[24] = second compound 0.316 µM, first compound 10 µM
[25] = second compound 1 µM, first compound 0.0316 µM
[26] = second compound 1 µM, first compound 0.1 µM
[27] = second compound 1 µM, first compound 0.316 µM
[28] = second compound 1 µM, first compound 1 µM
[29] = second compound 1 µM, first compound 3.16 µM
[30] = second compound 1 µM, first compound 10 µM
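Further: compound exposure lasted seven days after spheroids formed for three days.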

C#Cc1c(F)ccc2cc(O)cc(-c3ncc4c(N5CC6CCC(C5)N6)nc(OCC56CCCN5CC(F)C6)nc4c3F)c12 (stereo not given) + CNC(C)C(=O)NC1CN(S(=O)(=O)c2cccc(S(=O)(=O)N3CCC4CCC(C(=O)NC(c5ccccc5)c5ccccc5)N4C(=O)C(NC(=O)C(C)NC)C3)c2)CCC2CCC(C(=O)NC(c3ccccc3)c3ccccc3)N2C1=O
< 5.00: pIC50 (second compound 0.01 µM) | pIC50 (second compound 0.0316 µM) | pIC50 (second compound 0.1 µM) | pIC50 (second compound 0.316 µM)
> 7.50: pIC50 (second compound 1 µM)
inactive: viability, T/C [1] 75.8% | viability, T/C [2] 77.5% | viability, T/C [3] 78.4% | viability, T/C [4] 89.3% | viability, T/C [5] 86.8% | viability, T/C [6] 82% | viability, T/C [7] 66.7% | viability, T/C [8] 59.8% | viability, T/C [9] 71.6% | viability, T/C [10] 71.6% | viability, T/C [11] 76.9% | viability, T/C [12] 78% | viability, T/C [13] 53.5% | viability, T/C [14] 65.6% | viability, T/C [15] 65.3% | viability, T/C [16] 65.4% | viability, T/C [17] 72.4% | viability, T/C [18] 70.7% | viability, T/C [19] 47.8% | viability, T/C [20] 48.1% | viability, T/C [21] 52.7% | viability, T/C [22] 51.9% | viability, T/C [23] 51.4% | viability, T/C [24] 69.5% | viability, T/C [25] 37.6% | viability, T/C [26] 43.8% | viability, T/C [27] 39.4% | viability, T/C [28] 45.8% | viability, T/C [29] 55.5% | viability, T/C [30] 55.6%

C=C(F)C(=O)N1CCN(c2nc(OCC3CCCN3C)nc3c2CCN(c2cccc4cccc(Cl)c24)C3)CC1CC#N (stereo not given) + CNC(C)C(=O)NC1CN(S(=O)(=O)c2cccc(S(=O)(=O)N3CCC4CCC(C(=O)NC(c5ccccc5)c5ccccc5)N4C(=O)C(NC(=O)C(C)NC)C3)c2)CCC2CCC(C(=O)NC(c3ccccc3)c3ccccc3)N2C1=O
5.81: pIC50 (second compound 0.01 µM)
> 7.50: pIC50 (second compound 0.316 µM) | pIC50 (second compound 1 µM)
active: viability, T/C [6] 0.15% | viability, T/C [12] 0.13% | viability, T/C [18] 0.11% | viability, T/C [24] 0.11% | viability, T/C [30] 0.18%
inactive: viability, T/C [1] 68.7% | viability, T/C [2] 70.6% | viability, T/C [3] 61.5% | viability, T/C [4] 62.9% | viability, T/C [5] 30.8% | viability, T/C [7] 51.8% | viability, T/C [8] 56.5% | viability, T/C [9] 46.2% | viability, T/C [10] 48.5% | viability, T/C [11] 20.6% | viability, T/C [13] 50.7% | viability, T/C [14] 48% | viability, T/C [15] 52.3% | viability, T/C [16] 51.7% | viability, T/C [17] 18.9% | viability, T/C [19] 44.9% | viability, T/C [20] 43.4% | viability, T/C [21] 38.8% | viability, T/C [22] 45.7% | viability, T/C [23] 12.8% | viability, T/C [25] 34.3% | viability, T/C [26] 39.9% | viability, T/C [27] 36.7% | viability, T/C [28] 39.8% | viability, T/C [29] 8.22%
5.99: pIC50 (second compound 0.1 µM)
6.29: pIC50 (second compound 0.0316 µM)

C=CC(=O)N1CCN(c2nc(=O)n(-c3c(C)ccnc3C(C)C)c3nc(-c4c(O)cccc4F)c(F)cc23)C(C)C1 (stereo not given) + CNC(C)C(=O)NC1CN(S(=O)(=O)c2cccc(S(=O)(=O)N3CCC4CCC(C(=O)NC(c5ccccc5)c5ccccc5)N4C(=O)C(NC(=O)C(C)NC)C3)c2)CCC2CCC(C(=O)NC(c3ccccc3)c3ccccc3)N2C1=O
> 7.50: pIC50 (second compound 0.316 µM) | pIC50 (second compound 1 µM)
< 5.00: pIC50 (second compound 0.01 µM) | pIC50 (second compound 0.0316 µM) | pIC50 (second compound 0.1 µM)
inactive: viability, T/C [1] 72.5% | viability, T/C [2] 70.5% | viability, T/C [3] 74.1% | viability, T/C [4] 69.5% | viability, T/C [5] 78.4% | viability, T/C [6] 57.8% | viability, T/C [7] 58.2% | viability, T/C [8] 60.8% | viability, T/C [9] 57.6% | viability, T/C [10] 73.5% | viability, T/C [11] 59.5% | viability, T/C [12] 45.2% | viability, T/C [13] 53.2% | viability, T/C [14] 54% | viability, T/C [15] 62.1% | viability, T/C [16] 55.4% | viability, T/C [17] 60.3% | viability, T/C [18] 42.5% | viability, T/C [19] 49% | viability, T/C [20] 50.1% | viability, T/C [21] 46.2% | viability, T/C [22] 45.8% | viability, T/C [23] 51.5% | viability, T/C [24] 42.2% | viability, T/C [25] 45.2% | viability, T/C [26] 49.7% | viability, T/C [27] 44.9% | viability, T/C [28] 35.3% | viability, T/C [29] 38.8% | viability, T/C [30] 40.9%

CCN1C(C(=O)NC23CCC(C(=O)O)(CC2)CC3)C(c2cccc(Cl)c2F)C2(C(=O)Nc3cc(Cl)ccc32)C12CCCCC2 (stereo not given) + CNC(C)C(=O)NC1CN(S(=O)(=O)c2cccc(S(=O)(=O)N3CCC4CCC(C(=O)NC(c5ccccc5)c5ccccc5)N4C(=O)C(NC(=O)C(C)NC)C3)c2)CCC2CCC(C(=O)NC(c3ccccc3)c3ccccc3)N2C1=O
< 5.52: pIC50 (second compound 0.01 µM) | pIC50 (second compound 0.0316 µM)
7.35: pIC50 (second compound 0.316 µM)
> 8.02: pIC50 (second compound 1 µM)
6.27: pIC50 (second compound 0.1 µM)
inactive: viability, T/C (second compound 0.01 µM, first compound 0.00949 µM) 66.2% | viability, T/C (second compound 0.01 µM, first compound 0.03 µM) 77.9% | viability, T/C (second compound 0.01 µM, first compound 0.0949 µM) 66.8% | viability, T/C (second compound 0.01 µM, first compound 0.3 µM) 73.7% | viability, T/C (second compound 0.01 µM, first compound 0.949 µM) 67.5% | viability, T/C (second compound 0.01 µM, first compound 3 µM) 57.8% | viability, T/C (second compound 0.0316 µM, first compound 0.00949 µM) 57.3% | viability, T/C (second compound 0.0316 µM, first compound 0.03 µM) 62.8% | viability, T/C (second compound 0.0316 µM, first compound 0.0949 µM) 61.5% | viability, T/C (second compound 0.0316 µM, first compound 0.3 µM) 71% | viability, T/C (second compound 0.0316 µM, first compound 0.949 µM) 60.6% | viability, T/C (second compound 0.0316 µM, first compound 3 µM) 51.4% | viability, T/C (second compound 0.1 µM, first compound 0.00949 µM) 51.4% | viability, T/C (second compound 0.1 µM, first compound 0.03 µM) 53.4% | viability, T/C (second compound 0.1 µM, first compound 0.0949 µM) 56.5% | viability, T/C (second compound 0.1 µM, first compound 0.3 µM) 52% | viability, T/C (second compound 0.1 µM, first compound 0.949 µM) 47.1% | viability, T/C (second compound 0.1 µM, first compound 3 µM) 39.3% | viability, T/C (second compound 0.316 µM, first compound 0.00949 µM) 53.9% | viability, T/C (second compound 0.316 µM, first compound 0.03 µM) 55.3% | viability, T/C (second compound 0.316 µM, first compound 0.0949 µM) 49.8% | viability, T/C (second compound 0.316 µM, first compound 0.3 µM) 39.5% | viability, T/C (second compound 0.316 µM, first compound 0.949 µM) 41% | viability, T/C (second compound 0.316 µM, first compound 3 µM) 45.4% | viability, T/C (second compound 1 µM, first compound 0.00949 µM) 39.6% | viability, T/C (second compound 1 µM, first compound 0.03 µM) 45.6% | viability, T/C (second compound 1 µM, first compound 0.0949 µM) 44.5% | viability, T/C (second compound 1 µM, first compound 0.3 µM) 38.7% | viability, T/C (second compound 1 µM, first compound 0.949 µM) 35.7% | viability, T/C (second compound 1 µM, first compound 3 µM) 33%

Reference: PubChem BioAssay AID1963420 (Molecular Pharmacology Branch, DTP, NCI, 2024)
